Laboratory results reported in patent publication US10456398B2, “Inhibition of SGK1 in the treatment of heart conditions” (Beth Israel Deaconess Medical Center, Inc., priority 2013, dated 2019).

Experiments:
SGK1 = target: T1, SGK1 (Homo sapiens, UniProt O00141, S422D); test: cell-based cardiomyocyte assay: SGK1-CA driven phosphorylation of GSK3β in NRVMs (immunoblot); design: species or system rat
T1 construct: expressed in transfected cells; host or cells: neonatal rat ventricular myocytes (NRVMs) infected with adenovirus Ad.SGK1-CA
T1 sequence (O00141 1-431 S422D): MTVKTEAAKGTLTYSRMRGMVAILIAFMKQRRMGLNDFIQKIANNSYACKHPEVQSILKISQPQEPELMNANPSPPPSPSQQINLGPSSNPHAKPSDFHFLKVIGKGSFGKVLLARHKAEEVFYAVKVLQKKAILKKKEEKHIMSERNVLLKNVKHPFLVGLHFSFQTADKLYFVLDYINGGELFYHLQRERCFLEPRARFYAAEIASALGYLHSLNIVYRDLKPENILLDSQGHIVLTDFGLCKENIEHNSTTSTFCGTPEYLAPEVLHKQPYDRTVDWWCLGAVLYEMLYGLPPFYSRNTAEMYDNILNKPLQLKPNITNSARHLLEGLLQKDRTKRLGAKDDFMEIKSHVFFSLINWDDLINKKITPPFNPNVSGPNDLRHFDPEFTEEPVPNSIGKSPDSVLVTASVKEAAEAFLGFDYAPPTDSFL
Protocol: (§1) These inhibitors were further characterized using a cell-based cardiomyocyte system (FIG. 3). 2×10^6 neonatal rat ventricular myocytes (NRVMs) were plated on 60 mm plates in DMEM containing 10% horse serum, 5% fetal bovine serum, 1% L-glutamine and 1% penstrep antibiotic. 24 h after plating media was changed to DMEM containing 1% L-glutamine, and 24 h following cells were infected with SGK-CA virus and treated with various concentrations of SGK inhibitors 5377051 (Compound 1A) and 6410136 (Chembridge compound catalogue #6410136). 12 h after infection and treatment, the media was changed and cells were treated again. 12 h following the second treatment NRVMs were harvested and lysed in 300 uL of cell lysis buffer (Cell Signaling) containing protease and phosphatase inhibitors and PMSF at 4 degrees C. for 1 h with shaking. Lysates were subjected to immunoblotting with an antibody against phospho […]-glycogen synthase kinase beta (p-GSK3β), a well-established SGK1 substrate. For gel electrophoresis, 50 ug of protein per well was loaded, transferred to nitrocellulose membrane, blocked, and incubated with GAPDH and P-GSK3β primary antibodies. As expected, Ad.

Akt = test: cardiomyocyte assay: Akt (myr-Akt) mediated phosphorylation of GSK3β in NRVMs (immunoblot); type: cell-based, rat; details: NRVMs infected with Ad.myr-Akt, FIG. 8B, FIG. 3
Protocol: as §1, with “As expected, Ad.” left out
Because SGK1 and Akt are structurally related but have very different roles in the heart, with Akt deemed to be cardioprotective against stress, the inhibitors were assessed to determine if they have an off-target effect on Akt in CMs. […]

bkd−/− mutant zebrafish = test: rescue of 2:1 AV block phenotype in breakdance (bkd−/−) mutant zebrafish; type: in vivo; design: percent rescue at peak concentration relative to morpholino: dose or concentration left out as unconfirmed
Text: The zebrafish breakdance mutant (Bkd−/−) fish is a unique model of action potential prolongation due to a mutation in the Zerg (zebrafish HERG) channel, that recapitulates human LQT2 syndrome and has been used in high throughput screens to identify molecules that may shorten the action potential duration. The phenotypic manifestation of the prolonged QT interval in the Bkd −/− fish is the presence of functional 2:1 AV block, and previous screens have taken advantage of this easily quantifiable phenotype to screen for ‘rescue’ from 2:1 AV block.
Bkd^−/− (Breakdance) adults were crossed, and the resultant embryos were reared in E3 buffer at 25° C. 24 hours post-fertilization (hpf) animals were dechorionated with pronase and plated per well in 96-well plates in a final volume of 200 μL. At 48 hpf, compounds were added to the appropriate concentration. Zebrafish were visually scored at 72 hpf for presence or absence of 2:1 AV block. For the dose response curve, the fish at 48 hpf were treated for 24 hours at the desired concentration (from 20 mM stock in DMSO) and scored for suppression of breakdance phenotype. Genetic inhibition of SGK1 was achieved either by injection of 500 μM of SGK1 morpholino or SGK1-dominant negative mRNA at the 1-2 cell stage and the fish were scored for rescue of 2:1 AV block at the 99 hpf stage.

**Q.** `O=C1NC(=S)NC(=O)C1=Cc1ccccc1OCc1ccc(Cl)cc1` [Compound 1A] was tested. Which “effect on Ad.SGK1-CA induced increase in p-GSK3β” value (SGK1; NRVMs infected with SGK1-CA virus, FIG. 8A, FIG. 9) did it give?
**A.** inhibited

**Q.** What about the “ability to inhibit SGK1 compared with EMD 638683” value (SGK1; cellular assay, 10 micromolar compounds, FIG. 8C) of the same molecule?
**A.** better or at least equivalent

**Q.** And the “effect on Akt-mediated phosphorylation of GSK-3β (p-GSK3β)” value (Akt)?
**A.** neither 5377051 nor 6410136 caused a significant inhibition

**Q.** And the “percent rescue of 2:1 AV block phenotype” value (bkd−/− mutant zebrafish; bkd−/− fish, compound at 45 μM)?
**A.** 58%

**Q.** And the toxicity (bkd−/− mutant zebrafish; bkd−/− fish, concentrations up to 50 μM)?
**A.** minimal and stable toxicity

**Q.** And the “percent rescue at peak concentration relative to morpholino” value (bkd−/− mutant zebrafish; bkd−/− zebrafish, FIG. 2)?
**A.** comparable to rescue by morpholino

**Q.** And the “toxicity in the dosages tested” value (bkd−/− mutant zebrafish; bkd−/− zebrafish, FIG. 2)?
**A.** no significant increase in toxicity
